According to BigSolDB 2.1:

CCOC(=O)C1(c2ccccc2)CCN(CCC(C#N)(c2ccccc2)c2ccccc2)CC1
solubility (mole fraction)
Conditions	in acetone	in acetonitrile	in ethanol	in isopropanol	in methanol	in water
293.15 K	0.00426	0.00427	0.00169	0.000258	0.00598	8.6e-06
298.15 K	0.00479	0.005	0.00198	0.000442	0.00791	1.19e-05
303.15 K	0.00559	0.00601	0.0023	0.000627	0.0105	1.45e-05
308.15 K	0.00608	0.00727	0.0027	0.000859	0.0123	1.96e-05
313.15 K	0.00664	0.00919	0.00325	0.00108	0.0144	2.7e-05
318.15 K	0.00776	0.0124	0.00432	0.00156	0.0184	3.28e-05
